Data: article PMC8188212, “Multi‐Arm PEG/Peptidomimetic Conjugate Inhibitors of DR6/APP Interaction Block Hematogenous Tumor Cell Extravasation” (Advanced Science, 2021)
Square brackets hold non-standard residues; d marks the D form. Ends that are not written are not given here. Peptide text beside a SMILES is read from it. * marks the point of attachment. Cbz = O=C(OCc1ccccc1)*; CH2F = FC*

Tests used:
[1] = target: T1, DR6 protein (Homo sapiens, UniProt O75509); test: KD of DR6-targeting peptides for binding to DR6 protein by MST; settings: Tables S1 and S2, average of three independent experiments in triplicate, NB = No binding, read-out: KD ± SEM
T1 construct: purchased Sino Biology, Inc. (Shanghai, China)
T1 sequence (O75509 42-655): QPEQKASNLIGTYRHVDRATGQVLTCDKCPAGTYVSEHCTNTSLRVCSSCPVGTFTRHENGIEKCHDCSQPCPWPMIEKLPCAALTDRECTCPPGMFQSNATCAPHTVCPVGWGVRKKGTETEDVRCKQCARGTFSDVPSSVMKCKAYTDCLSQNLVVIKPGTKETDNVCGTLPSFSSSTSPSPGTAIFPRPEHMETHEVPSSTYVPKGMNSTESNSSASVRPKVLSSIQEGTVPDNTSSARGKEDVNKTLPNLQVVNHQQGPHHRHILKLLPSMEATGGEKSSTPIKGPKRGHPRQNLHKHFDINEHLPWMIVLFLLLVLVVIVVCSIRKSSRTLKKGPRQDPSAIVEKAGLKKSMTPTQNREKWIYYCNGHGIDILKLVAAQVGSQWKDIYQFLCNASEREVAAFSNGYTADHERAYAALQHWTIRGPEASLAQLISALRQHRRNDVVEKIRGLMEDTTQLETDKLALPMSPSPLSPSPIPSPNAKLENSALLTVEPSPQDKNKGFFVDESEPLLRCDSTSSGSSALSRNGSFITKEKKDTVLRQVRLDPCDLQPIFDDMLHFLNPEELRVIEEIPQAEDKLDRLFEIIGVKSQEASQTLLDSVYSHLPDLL
Protocol: For labeling DR6 protein with Red‐tris‐NTA second‐generation dye, equal volume of DR6 protein (200 × 10^–9 M) and dye (100 × 10^–9 M) were mixed. The solution was incubated for 30 min at room temperature and centrifuged for 10 min at 4 ℃ and 15 000 × g. The DR6 protein was labeled and ready for the binding assay. Prepare 25 µL of the DR6‐targeting peptides at 20 × 10^–6 M and add 10 µL of the PBS‐T into the PCR tubes 2–12. Transfer 20 µL DR6‐targeting peptides into the PCR tube 1 and then transfer 10 µL of the DR6‐targeting peptides from tube 1 to tube 2 with a pipette and mix by pipetting up and down multiple times. Transfer 10 µL to tube 3 and mix. Repeat the procedure for tube 4–12. Add 10 µL of labeled protein to each tube (1–12) and mix by pipetting. The final DR6 protein concentration was 50× 10^−9 M. Load the capillaries and measure the samples by NanoTemper Monolith NT.015.^[ ^51 , ^52 ^]

[2] = Pharmacokinetic study after intravenous injection; type: in vivo; settings: SD rats, FITC-labeled, blood samples 0.5-72 h, microplate reader, n = 3
Protocol: To investigate the pharmacokinetic profile of AHP‐DRI‐12 and PEG‐tAHP‐DRI, SD rats were intravenously injected with FITC‐labeled AHP‐DRI‐12 and PEG‐tAHP‐DRI and blood samples were collected at 0.5, 1, 2, 4, 6, 24, 30, 48, 54, and 72 h. The DR6‐targeting peptide level of blood samples was measured by a microplate reader.

[3] = target: hERG potassium channel (Homo sapiens, UniProt Q12809); test: Whole-cell patch clamp recording of hERG current; type: cell-based; settings: cisapride as positive control
Chain of hERG potassium channel (Q12809 whole entry): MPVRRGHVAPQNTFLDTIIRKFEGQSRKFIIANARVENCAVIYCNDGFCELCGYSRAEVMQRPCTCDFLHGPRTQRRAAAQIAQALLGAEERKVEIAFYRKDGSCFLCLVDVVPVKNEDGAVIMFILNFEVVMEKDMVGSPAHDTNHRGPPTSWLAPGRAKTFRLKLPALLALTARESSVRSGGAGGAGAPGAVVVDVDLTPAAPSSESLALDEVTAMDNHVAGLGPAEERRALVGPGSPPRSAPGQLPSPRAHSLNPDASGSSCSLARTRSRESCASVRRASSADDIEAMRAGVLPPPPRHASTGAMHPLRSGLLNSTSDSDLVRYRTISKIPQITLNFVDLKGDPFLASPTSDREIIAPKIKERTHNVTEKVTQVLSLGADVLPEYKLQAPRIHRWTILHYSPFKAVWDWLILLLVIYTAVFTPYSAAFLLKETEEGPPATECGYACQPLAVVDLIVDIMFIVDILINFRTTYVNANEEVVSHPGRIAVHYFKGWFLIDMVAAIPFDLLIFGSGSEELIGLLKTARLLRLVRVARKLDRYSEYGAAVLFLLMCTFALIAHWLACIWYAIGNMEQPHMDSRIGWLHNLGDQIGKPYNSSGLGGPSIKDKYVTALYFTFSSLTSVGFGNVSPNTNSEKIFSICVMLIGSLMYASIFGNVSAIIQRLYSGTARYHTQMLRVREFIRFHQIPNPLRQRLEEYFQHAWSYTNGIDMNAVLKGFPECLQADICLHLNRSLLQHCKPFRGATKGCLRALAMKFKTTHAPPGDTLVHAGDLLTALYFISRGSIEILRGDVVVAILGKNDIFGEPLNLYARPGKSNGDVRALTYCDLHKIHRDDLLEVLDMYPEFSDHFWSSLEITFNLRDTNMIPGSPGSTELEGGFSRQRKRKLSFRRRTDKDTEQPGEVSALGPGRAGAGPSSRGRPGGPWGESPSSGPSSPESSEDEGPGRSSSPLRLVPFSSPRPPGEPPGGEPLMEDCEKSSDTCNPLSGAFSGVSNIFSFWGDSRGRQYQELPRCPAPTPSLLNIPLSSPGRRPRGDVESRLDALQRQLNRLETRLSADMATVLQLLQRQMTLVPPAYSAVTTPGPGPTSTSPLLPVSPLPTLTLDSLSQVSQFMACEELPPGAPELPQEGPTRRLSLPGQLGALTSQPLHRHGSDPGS
Protocol: In addition, some common adverse effects suffered by frequently used medications were also evaluated. The whole‐cell patch clamp recording technique was used to record the whole‐cell hERG‐potassium to measure the cardiac toxicity of peptidomimetic agents on hERG potassium channel by utilizing cisapride as positive control (Figure 6E; Figure S10, Supporting Information). […] Meanwhile, the blood biochemical indexes of ligand‐treated mice sacrificed on day 2 or day 15 were tested to examine the influences of peptidomimetic agents to liver and kidney (Figure S11, Supporting Information).

[4] = In vivo safety analysis in healthy mice; design: species or system C57BL/6 mice; settings: healthy mice, intravenous, 0.2 µg g^–1 AHP-DRI-12; sacrificed day 2 or day 15
Protocol: For evaluating the toxicity of peptides in vivo, 6 week old healthy mice were intravenously injected with AHP‐DRI‐12 and PEG‐tAHP‐DRI (0.2 µg g^–1 AHP‐DRI‐12). After 2 and 15 days, mice were sacrificed and serum samples were collected for the biochemical analysis (ALT, AST, BRU, and URE). Tissue samples from various organs were collected for tissue sections. The tissue sections were analyzed by H&E staining and immunohistochemistry analysis.

[5] = test system: TCs over HUVECs monolayer; test: Transendothelial migration of TCs over HUVEC monolayer; type: cell-based, human; settings: AHP-DRI-12 and PEG-tAHP-DRI 1 × 10^−6 M (AHP-DRI-12), Nec-1 30 × 10^–6 M, zVAD 100 × 10^–6 M; 48 h; compared with control; n = 3
Protocol: HUVECs (1 × 10^5) in DMEM were added into 24‐well plate transwell upper chambers and the medium was changed every 2 days. Using the EVOM resistance tester, the transendothelial resistance was measured daily. When the TEER resistance value was >200 Ωcm^2, the cells grew into a monolayer of tight connection. 2 × 10^5 GFP‐TCs were added into upper chambers. One milliliter DMEM containing 10% FBS was added into lower chambers overnight. AHP‐DRI‐12 and PEG‐tAHP‐DRI (1 ×10^–6 M AHP‐DRI‐12), Nec‐1 (30 × 10^–6 M), and zVAD (100 × 10^–6 M) were added in upper chambers, respectively. After incubation for 48 h, cells in lower chambers were observed by fluorescence microscope.^[ ^56 ^]

Row | Kd [1] [µM] | Compound | further results
1 | 3.174 ± 0.0088 | C[C@H](O)[C@@H](NC(=O)[C@@H](CC(=O)O)NC(=O)[C@H](NC(=O)[C@@H](Cc1c[nH]cn1)NC(=O)[C@H](N)CO)[C@H](C)O)C(=O)N[C@H](CC(N)=O)C(=O)N[C@H](CCC(N)=O)C(=O)O [AHP-D-13] (H-[dS][dH][dT][dD][dT][dN][dQ]-OH) | –
2 | 1.219 ± 0.00702 | CC(C)C[C@@H](NC(=O)[C@H]1CCCN1C(=O)[C@@H](C)NC(=O)[C@H]1CCCN1C(=O)[C@@H](CC(C)C)NC(=O)[C@H]1CCCN1)C(=O)N[C@H](Cc1ccc(O)cc1)C(=O)O [AHP-DRI-03] (H-[dP][dL][dP][dA][dP][dL][dY]-OH) | –
3 | 0.8627 ± 0.00659 | C[C@H](O)[C@@H](NC(=O)[C@@H](CC(=O)O)NC(=O)[C@H](NC(=O)[C@@H](CC(N)=O)NC(=O)[C@H](N)CCC(N)=O)[C@H](C)O)C(=O)N[C@H](Cc1c[nH]cn1)C(=O)N[C@H](CO)C(=O)O [AHP-DRI-13] (H-[dQ][dN][dT][dD][dT][dH][dS]-OH) | –
4 | 0.457 ± 0.0116 | AFMYSLP [AHP-14] | –
5 | > 10 | AGHFSLW [AHP-21] | –
6 | > 10 | FQFRLQS [AHP-02] | –
7 | > 10 | GFSHYFP [AHP-11] | –

Continued, compound first:

Row | Compound | Kd [1] [µM] | further results
8 | CC(C)C[C@@H](NC(=O)[C@H]1CCCN1C(=O)[C@@H](C)NC(=O)[C@H]1CCCN1C(=O)[C@@H](CC(C)C)NC(=O)[C@H](N)Cc1ccc(O)cc1)C(=O)N1CCC[C@@H]1C(=O)O [AHP-D-03] (H-[dY][dL][dP][dA][dP][dL][dP]-OH) | 4.734 ± 0.0088 | –
9 | CC[C@@H](C)[C@@H](NC(=O)[C@H](N)[C@H](C)O)C(=O)N[C@H](CC(=O)O)C(=O)N[C@H](C)C(=O)N[C@@H](C(=O)N[C@@H](C(=O)N1CCC[C@@H]1C(=O)O)[C@H](C)O)[C@H](C)O [AHP-D-12] (H-[dT][dI][dD][dA][dT][dT][dP]-OH) | 55.1 ± 27.6 | –
10 | CC[C@@H](C)[C@@H](NC(=O)[C@@H](CC(=O)O)NC(=O)[C@@H](C)NC(=O)[C@H](NC(=O)[C@H](NC(=O)[C@H]1CCCN1)[C@H](C)O)[C@H](C)O)C(=O)N[C@@H](C(=O)O)[C@H](C)O [AHP-DRI-12] (H-[dP][dT][dT][dA][dD][dI][dT]-OH) | – | half-life (T1/2) [2]: 7.8 h; inhibitory effect on hERG channels [3]: no significant inhibitory effect; damage to liver or kidney, blood biochemical indexes (ALT, AST, BRU, URE) [4]: could not cause any damage to liver or kidney
11 | COC(=O)C[C@H](NC(=O)[C@H](C)NC(=O)[C@@H](NC(=O)OCc1ccccc1)C(C)C)C(=O)CF [zVAD, z‐VAD‐fmk, reference compound] (Cbz-Val-Ala-Asp(OMe)-CH2F) | – | TCs transendothelial migration [5]: increased number of migrated TCs
12 | ANLLYES [AHP-04] | > 10 | –
13 | HSTAPQL [AHP-08] | > 10 | –
14 | HSYPYTQ [AHP-17] | > 10 | –
15 | KFLQVTN [AHP-16] | > 10 | –
16 | KLGPVCP [AHP-06] | > 10 | –
17 | KLVPEPS [AHP-09] | > 10 | –
